Experimental data reported in ChEMBL document CHEMBL3638545 (2015).
pIC50: −log10 of the molar value.

biological target: Sodium channel protein type 5 subunit alpha (Homo sapiens, UniProt Q14524); experiment: Electrophysiological Assay: Patch voltage clamp electrophysiology allows for the direct measurement and quantification of block of voltage-gated sodium channels (NaV's), and allows the determination of the time- and voltage-dependence of block which has been interpreted as differential binding to the resting, open, and inactivated states of the sodium channel (Hille, B., Journal of General …; format: cell-based, HEK293
Sequence (Q14524 whole entry): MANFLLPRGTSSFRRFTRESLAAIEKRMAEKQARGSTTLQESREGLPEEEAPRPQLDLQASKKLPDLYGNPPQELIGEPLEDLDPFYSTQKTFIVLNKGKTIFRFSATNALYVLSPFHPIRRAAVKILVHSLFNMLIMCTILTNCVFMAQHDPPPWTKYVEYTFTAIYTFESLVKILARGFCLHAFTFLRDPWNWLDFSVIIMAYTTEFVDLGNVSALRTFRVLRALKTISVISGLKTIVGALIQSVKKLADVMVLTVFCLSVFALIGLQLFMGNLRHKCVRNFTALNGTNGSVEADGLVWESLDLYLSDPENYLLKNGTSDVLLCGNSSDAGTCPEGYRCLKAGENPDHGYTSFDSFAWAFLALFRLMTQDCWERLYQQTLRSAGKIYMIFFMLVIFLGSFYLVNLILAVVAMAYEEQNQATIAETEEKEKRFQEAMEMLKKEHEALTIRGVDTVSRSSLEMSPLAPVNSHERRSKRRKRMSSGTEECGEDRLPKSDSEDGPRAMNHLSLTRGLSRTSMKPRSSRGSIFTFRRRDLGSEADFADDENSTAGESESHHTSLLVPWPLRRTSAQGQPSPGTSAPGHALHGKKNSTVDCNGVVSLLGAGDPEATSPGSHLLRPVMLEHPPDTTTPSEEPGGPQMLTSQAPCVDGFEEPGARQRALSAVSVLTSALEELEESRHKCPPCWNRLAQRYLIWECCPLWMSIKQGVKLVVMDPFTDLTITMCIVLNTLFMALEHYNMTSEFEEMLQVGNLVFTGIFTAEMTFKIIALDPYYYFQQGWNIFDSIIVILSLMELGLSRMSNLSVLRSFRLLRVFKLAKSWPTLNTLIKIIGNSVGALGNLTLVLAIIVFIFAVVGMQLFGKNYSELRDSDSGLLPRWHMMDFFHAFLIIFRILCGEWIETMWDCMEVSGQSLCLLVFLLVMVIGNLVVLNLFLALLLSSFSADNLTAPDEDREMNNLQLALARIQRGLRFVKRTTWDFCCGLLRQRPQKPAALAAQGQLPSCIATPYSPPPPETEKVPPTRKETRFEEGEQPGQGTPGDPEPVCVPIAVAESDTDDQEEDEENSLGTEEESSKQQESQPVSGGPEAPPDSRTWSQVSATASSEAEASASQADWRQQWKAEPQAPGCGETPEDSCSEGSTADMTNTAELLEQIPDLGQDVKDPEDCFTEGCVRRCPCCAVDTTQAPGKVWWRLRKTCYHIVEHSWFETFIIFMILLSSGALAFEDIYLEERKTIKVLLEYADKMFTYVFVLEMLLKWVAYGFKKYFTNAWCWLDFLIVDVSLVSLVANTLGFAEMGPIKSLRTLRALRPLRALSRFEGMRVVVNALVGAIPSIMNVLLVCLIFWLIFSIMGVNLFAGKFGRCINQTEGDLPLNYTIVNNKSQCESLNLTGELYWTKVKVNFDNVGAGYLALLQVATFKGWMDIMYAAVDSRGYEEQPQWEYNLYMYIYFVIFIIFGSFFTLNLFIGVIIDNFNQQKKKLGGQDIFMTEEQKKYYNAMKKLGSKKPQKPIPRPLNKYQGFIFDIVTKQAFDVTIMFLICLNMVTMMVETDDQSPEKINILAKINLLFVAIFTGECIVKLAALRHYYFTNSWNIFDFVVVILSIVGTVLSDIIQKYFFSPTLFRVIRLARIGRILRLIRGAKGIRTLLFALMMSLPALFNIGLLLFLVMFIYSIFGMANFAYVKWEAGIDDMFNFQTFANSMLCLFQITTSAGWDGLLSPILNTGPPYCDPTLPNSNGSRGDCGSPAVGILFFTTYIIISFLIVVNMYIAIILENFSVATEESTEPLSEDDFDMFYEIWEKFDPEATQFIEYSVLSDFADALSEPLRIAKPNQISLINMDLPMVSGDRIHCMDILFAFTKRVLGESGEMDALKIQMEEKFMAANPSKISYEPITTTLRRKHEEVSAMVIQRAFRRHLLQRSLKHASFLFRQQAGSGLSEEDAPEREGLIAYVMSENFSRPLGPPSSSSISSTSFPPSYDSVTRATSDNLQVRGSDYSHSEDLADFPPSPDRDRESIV

First: CS(=O)(=O)NC(=O)c1cc(C2CC2)c(OCC23CC4CC(C2)C(F)(F)C(C4)C3)cc1F
Second: COCCS(=O)(=O)NC(=O)c1cc(C2CC2)c(OCC23CC4CC(CC(C4)C2)C3)cc1F
The pIC50 of the first is 0.85 log units lower: 6.15 for the first, 7.00 for the second. The second is the more potent here.

Compared with `O=C(NS(=O)(=O)N1CCC1)c1cc(C2CC2)c(OCC2(C(F)(F)F)CCCCC2)cc1F`, `O=C(NS(=O)(=O)N1CCC1)c1cc(C2CC2)c(OCC23CC4(F)CC(F)(CC(F)(C4)C2)C3)cc1F` is 0.44 log units lower in pIC50: 6.46 for the first, 6.02 for the second. The first is the more potent here.

Going from `CN(C)S(=O)(=O)NC(=O)c1cc(Cl)c(OCC23CC4CC(CC(C4)C2)C3)cc1F` to `O=C(NS(=O)(=O)N1CCOCC1)c1cc(C2CC2)c(OCC23CC4CC(CC(C4)C2)C3)cc1F`, the pIC50 rises from 6.11 to 7.85 (1.74 log units).

With `CC1(C)CCc2cc(OCc3cc(F)c(C(=O)NS(=O)(=O)N4CCC4)cc3Cl)ccc2O1` the pIC50 was 6.19.
